Two substances from patent US20250215051A1, “Transmembrane Allosteric Short Peptides Modulating Human Mu-Opioid Receptor for Analgesic Effects and Covalent Steroid Modifications of Transmembrane Allosteric Peptides for Enhanced Mu-Opioid Receptor Interaction in Chronic Pain Therapies” (Mu42 SPOLKA Z OGRANICZONA ODPOWIEDZIALNOSCIA, priority 2023, published 2025) can be followed below.

No end group written: not given here.

In the test the target is T1, mu-opioid receptor (MOR) (Homo sapiens, UniProt P35372).
T1 construct: expressed in transfected cells; host or cells: CHO-K1
T1 sequence (P35372 whole entry): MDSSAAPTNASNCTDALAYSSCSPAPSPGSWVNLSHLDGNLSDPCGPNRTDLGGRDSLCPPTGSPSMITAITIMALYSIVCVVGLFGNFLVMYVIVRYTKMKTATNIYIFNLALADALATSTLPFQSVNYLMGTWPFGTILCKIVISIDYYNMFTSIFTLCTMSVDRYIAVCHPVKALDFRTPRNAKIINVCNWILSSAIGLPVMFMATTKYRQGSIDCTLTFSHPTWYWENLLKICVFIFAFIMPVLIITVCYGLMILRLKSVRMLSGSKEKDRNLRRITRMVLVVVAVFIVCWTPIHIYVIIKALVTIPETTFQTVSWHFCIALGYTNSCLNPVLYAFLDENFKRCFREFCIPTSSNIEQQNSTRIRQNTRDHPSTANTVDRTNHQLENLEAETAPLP
The test is described as follows: functional cellular cAMP assay on CHO-K1 cell lines expressing MOR, co-administration with orthosteric ligand. Conditions: for Allosteric activity level (%): 0% = reference agonist at EC20, 100% = maximum activity of reference agonist; for EC50: logEC50(M), log of molar EC50, CHO-K1 cells expressing MOR, cAMP. The class given is cell-based. On the procedure: The properties and functionality of these peptidosteroids were validated using standard experimental methods. To evaluate their allosteric modulation capabilities, functional cellular assays were conducted on CHO-K1 cell lines expressing MOR. These assays utilized fluorescent techniques to measure intracellular cAMP levels as a marker of receptor activity.
The peptidosteroids were tested in co-administration with orthosteric ligands, such as morphine and DAMGO, to assess their ability to influence receptor signaling.
The table below provides additional data on the binding motifs (Candidates 1 and 2) and the resulting peptidomimetics (Candidate 3), offering a detailed comparison of their activity. The percentage values are normalized such that 0% corresponds to the activity of the reference agonist at EC20, while 100% represents the maximum activity of the reference agonist.
In general terms: cAMP levels reflect the balance of adenylyl cyclase and phosphodiesterase activity.

Take “VCAVGLWGNWLVM [sequence-1, VCAVGLWGNWLVM]”: the “Allosteric activity level (%)” value reads like this: (agonist present DAMGO) 23.64%; (agonist present morphine) 21.67%. The EC50 (commonly the midpoint of the concentration-response curve) reads like this: (agonist present DAMGO (EC20)) 4.57e-06 M; (agonist present morphine) 1e-06 M.

Consider YPWFYL [sequence-4, YPWFYL], for which the “Allosteric activity level (%)” value (agonist present DAMGO) was 24.64%. The EC50 (agonist present DAMGO (EC20)) was 1.35e-06 M.
